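Method: 48-hour compound exposure of cells in 96-well plates, five concentrations, linear interpolation of endpoints. Abbreviation: GI50, concentration required for 50% inhibition of growth. Definition used: TGI = concentration required for complete inhibition of growth.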
How the values were obtained:
Experiment in all cases: DTP human tumour cell line panel, 48 h
786-0 renal = test system: 786-0 renal
A498 renal = test system: A498 renal
A549 NSCLC = test system: A549 NSCLC
ACHN renal = test system: ACHN renal
BT-549 breast = test system: BT-549 breast
CAKI-1 renal = test system: CAKI-1 renal
CCRF-CEM leukemia = test system: CCRF-CEM leukemia
DU-145 prostate = test system: DU-145 prostate
EKVX NSCLC = test system: EKVX NSCLC
HCC-2998 colon = test system: HCC-2998 colon
HCT-116 colon = test system: HCT-116 colon
HCT-15 colon = test system: HCT-15 colon
HL-60(TB) leukemia = test system: HL-60(TB) leukemia
HOP-62 NSCLC = test system: HOP-62 NSCLC
HOP-92 NSCLC = test system: HOP-92 NSCLC
HS 578T breast = test system: HS 578T breast
HT29 colon = test system: HT29 colon
IGROV1 ovarian = test system: IGROV1 ovarian
K-562 leukemia = test system: K-562 leukemia
KM12 colon = test system: KM12 colon
M14 melanoma = test system: M14 melanoma
MALME-3M melanoma = test system: MALME-3M melanoma
MCF7 breast = test system: MCF7 breast
MDA-MB-231 breast = test system: MDA-MB-231 breast
MDA-MB-435 = test system: MDA-MB-435
NCI-H226 lung = test system: NCI-H226 lung
NCI-H23 lung = test system: NCI-H23 lung
NCI-H460 lung = test system: NCI-H460 lung
NCI-H522 lung = test system: NCI-H522 lung
NCI/ADR-RES ovarian = test system: NCI/ADR-RES ovarian
OVCAR-3 ovarian = test system: OVCAR-3 ovarian
OVCAR-4 ovarian = test system: OVCAR-4 ovarian
OVCAR-5 ovarian = test system: OVCAR-5 ovarian
OVCAR-8 ovarian = test system: OVCAR-8 ovarian
PC-3 prostate = test system: PC-3 prostate
RPMI-8226 leukemia = test system: RPMI-8226 leukemia
RXF 393 renal = test system: RXF 393 renal
SF-268 CNS = test system: SF-268 CNS
SF-295 CNS = test system: SF-295 CNS
SF-539 CNS = test system: SF-539 CNS
SK-MEL-2 melanoma = test system: SK-MEL-2 melanoma
SK-MEL-28 melanoma = test system: SK-MEL-28 melanoma
SK-MEL-5 melanoma = test system: SK-MEL-5 melanoma
SK-OV-3 ovarian = test system: SK-OV-3 ovarian
SN12C renal = test system: SN12C renal
SNB-19 CNS = test system: SNB-19 CNS
SNB-75 CNS = test system: SNB-75 CNS
SW-620 colon = test system: SW-620 colon
TK-10 renal = test system: TK-10 renal
U251 CNS = test system: U251 CNS
UACC-257 melanoma = test system: UACC-257 melanoma
UACC-62 melanoma = test system: UACC-62 melanoma
UO-31 renal = test system: UO-31 renal

With `Cn1cc(-c2nn3cc(-c4cccs4)nc3s2)c2cc(F)ccc21` the GI50 (786-0 renal) was 7.62 µM, the TGI (786-0 renal) was 52.3 µM and the GI50 (A498 renal) was 4.09 µM. It also gave a TGI (A498 renal) of 50 µM, a GI50 (A549 NSCLC) of 2.85 µM and a TGI (A549 NSCLC) of 95.6 µM. It also gave a GI50 (ACHN renal) of 3.39 µM, a TGI (ACHN renal) of 86.8 µM and a GI50 (BT-549 breast) of 5.54 µM. For the same compound, the TGI (BT-549 breast) was 77.4 µM, the GI50 (CAKI-1 renal) was 2.42 µM and the TGI (CAKI-1 renal) was 57.4 µM. For the same compound, the GI50 (CCRF-CEM leukemia) was 2.54 µM, the TGI (CCRF-CEM leukemia) was greater than 100 µM and the GI50 (DU-145 prostate) was 3.67 µM. The TGI (DU-145 prostate) was 31.6 µM, the GI50 (EKVX NSCLC) was 2.51 µM and the TGI (EKVX NSCLC) was greater than 100 µM. It also gave a GI50 (HCC-2998 colon) of 5.64 µM, a TGI (HCC-2998 colon) of 33.9 µM and a GI50 (HCT-116 colon) of 2.04 µM. The TGI (HCT-116 colon) was 26.4 µM, the GI50 (HCT-15 colon) was 0.606 µM and the TGI (HCT-15 colon) was greater than 100 µM. The GI50 (HL-60(TB) leukemia) was 1.34 µM, the TGI (HL-60(TB) leukemia) was 15.5 µM and the GI50 (HOP-62 NSCLC) was 1.92 µM. It also gave a TGI (HOP-62 NSCLC) of 23.1 µM, a GI50 (HOP-92 NSCLC) of 12.2 µM and a TGI (HOP-92 NSCLC) of 76.9 µM. For the same compound, the GI50 (HS 578T breast) was 2.34 µM, the TGI (HS 578T breast) was 13.4 µM and the GI50 (HT29 colon) was 0.477 µM. For the same compound, the TGI (HT29 colon) was 14.8 µM, the GI50 (IGROV1 ovarian) was 1.93 µM and the TGI (IGROV1 ovarian) was greater than 100 µM. For the same compound, the GI50 (K-562 leukemia) was 0.451 µM, the TGI (K-562 leukemia) was greater than 100 µM and the GI50 (KM12 colon) was 1.04 µM. For the same compound, the TGI (KM12 colon) was greater than 100 µM, the GI50 (M14 melanoma) was 1.05 µM and the TGI (M14 melanoma) was greater than 100 µM. For the same compound, the GI50 (MALME-3M melanoma) was 1.81 µM, the TGI (MALME-3M melanoma) was 31.6 µM and the GI50 (MCF7 breast) was 0.836 µM. For the same compound, the TGI (MCF7 breast) was 30 µM, the GI50 (MDA-MB-231 breast) was 3.23 µM and the TGI (MDA-MB-231 breast) was 30.6 µM. It also gave a GI50 (MDA-MB-435) of 0.293 µM, a TGI (MDA-MB-435) of 1.13 µM and a GI50 (NCI-H226 lung) of 4.56 µM. The TGI (NCI-H226 lung) was 35.8 µM, the GI50 (NCI-H23 lung) was 3.82 µM and the TGI (NCI-H23 lung) was greater than 100 µM. It also gave a GI50 (NCI-H460 lung) of 1.73 µM, a TGI (NCI-H460 lung) of 17.1 µM and a GI50 (NCI-H522 lung) of 1.62 µM. The TGI (NCI-H522 lung) was 24.5 µM, the GI50 (NCI/ADR-RES ovarian) was 0.991 µM and the TGI (NCI/ADR-RES ovarian) was 19.1 µM. For the same compound, the GI50 (OVCAR-3 ovarian) was 2.06 µM, the TGI (OVCAR-3 ovarian) was 9.67 µM and the GI50 (OVCAR-4 ovarian) was 5.77 µM. The TGI (OVCAR-4 ovarian) was greater than 100 µM, the GI50 (OVCAR-5 ovarian) was 8.24 µM and the TGI (OVCAR-5 ovarian) was 84.4 µM. The GI50 (OVCAR-8 ovarian) was 4.53 µM, the TGI (OVCAR-8 ovarian) was greater than 100 µM and the GI50 (PC-3 prostate) was 3.19 µM. For the same compound, the TGI (PC-3 prostate) was greater than 100 µM, the GI50 (RPMI-8226 leukemia) was 3.01 µM and the TGI (RPMI-8226 leukemia) was 26.5 µM. It also gave a GI50 (RXF 393 renal) of 1.59 µM, a TGI (RXF 393 renal) of 5.73 µM and a GI50 (SF-268 CNS) of 6.58 µM. It also gave a TGI (SF-268 CNS) greater than 100 µM, a GI50 (SF-295 CNS) of 2.24 µM and a TGI (SF-295 CNS) of 9.39 µM. It also gave a GI50 (SF-539 CNS) of 2.18 µM, a TGI (SF-539 CNS) of 7.54 µM and a GI50 (SK-MEL-2 melanoma) of 1.59 µM. It also gave a TGI (SK-MEL-2 melanoma) of 7.29 µM, a GI50 (SK-MEL-28 melanoma) of 7.23 µM and a TGI (SK-MEL-28 melanoma) greater than 100 µM. The GI50 (SK-MEL-5 melanoma) was 1.8 µM, the TGI (SK-MEL-5 melanoma) was 12.9 µM and the GI50 (SK-OV-3 ovarian) was 3.47 µM. It also gave a TGI (SK-OV-3 ovarian) of 70.9 µM, a GI50 (SN12C renal) of 4.71 µM and a TGI (SN12C renal) greater than 100 µM. It also gave a GI50 (SNB-19 CNS) of 3.44 µM, a TGI (SNB-19 CNS) greater than 100 µM and a GI50 (SNB-75 CNS) of 1.29 µM. The TGI (SNB-75 CNS) was 6.45 µM, the GI50 (SW-620 colon) was 0.478 µM and the TGI (SW-620 colon) was greater than 100 µM. For the same compound, the GI50 (TK-10 renal) was 4.92 µM, the TGI (TK-10 renal) was 19.4 µM and the GI50 (U251 CNS) was 2.76 µM. The TGI (U251 CNS) was 17.9 µM, the GI50 (UACC-257 melanoma) was 7.9 µM and the TGI (UACC-257 melanoma) was greater than 100 µM. The GI50 (UACC-62 melanoma) was 1.93 µM, the TGI (UACC-62 melanoma) was greater than 100 µM and the GI50 (UO-31 renal) was 1.72 µM. For the same compound, the TGI (UO-31 renal) was greater than 100 µM.

Source: PubChem BioAssay (NCI)
